B1: ICAM1: Intercellular Adhesion Molecule 1, also known as Cluster of Differentiation 54 (CD54) (protein, UniProt P05362 28-532, looked up)
Intercellular adhesion …: QTSVSPSKVILPRGGSVLVTCSTSCDQPKLLGIETPLPKKELLLPGNNRKVYELSNVQEDSQPMCYSNCPDGQSTAKTFLTVYWTPERVELAPLPSWQPVGKNLTLRCQVEGGAPRANLTVVLLRGEKELKREPAVGEPAEVTTTVLVRRDHHGANFSCRTELDLRPQGLELFENTSAPYQLQTFVLPATPPQLVSPRVLEVDTQGTVVCSLDGLFPVSEAQVHLALGDQRLNPTVTYGNDSFSAKASVSVTAEDEGTQRLTCAVILGNQSQETLQTVTIYSFPAPNVILTKPEVSEGTEVTVKCEAHPRAKVTLNGVPAQPLGPRAQLLLKATPEDNGRSFSCSATLEVAGQLIHKNQTRELRVLYGPRLDERDCPGNWTWPENSQQTPMCQAWGNPLPELKCLKDGTFPLPIGESVTVTRDLEGTYLCRARSTQGEVTRKVTVNVLSPRYEIVIITVVAAAVIMGTAGLSTYLYNRQRKIKKYRLQQAQKGTPMKPNTQATPP

Legend:
Type in all cases: cell-based
activated CD3+ T-cells = test: Activated CD3+ T-cell chemotaxis through end-to-end collagen-matrigel ECM plug in 2-lane Mimetas ORGANOPLATE; conditions: for lowest concentration with robust chemotaxis response (migration length) compared to blank media control / lowest concentration with significantly higher total number of responding activated T-cells over blank media controls: 10,000 cells, 96 hours; for lowest concentration with robust chemotaxis response (migration length) compared to blank media control: chemokine refreshed at 48 hours; for lowest concentration with significantly higher total number of responding activated T-cells over blank media controls: one-way ANOVA
Method: 50 μl of 37° C. warmed 1×PBS were added to wells in columns 3, 7, 11, 15, 19 and 23 observation windows of Mimetas 2-lane ORGANOPLATE® and stored at 4° C. 5 μl of ice-cold 2 mg/ml collagen mixed with 10% (v/v) of low endotoxin matrigel GFR were added to wells in columns 4, 8, 12, 16, 20 and 24 of chilled Mimetas 2-lane ORGANOPLATE® to potentially create aligned collagen fibers within the microfluidic channels. After the ECM filled all the microfluidic channels, 1 μl of ice-cold ECM was quickly added to wells in columns 1, 2, 5, 6, 9, 10, 13, 14, 17, 18, 21, and 22 to allow for contact to be established between the ECM footprints. 4.5 ml of 37° C. warmed ultrapure water was added to both the ends of sterile MicroClime Environmental Lid and placed atop the Mimetas ORGANOPLATE®. The assembly was placed in a humidified 37° C. cell culture incubator for 45 minutes to ensure complete gelation of all the wells throughout the plate and used for the experiment.
After the gelation, 50 μl of blank media was added to the wells of columns 1, 5, 9, 13, 17 and 21 followed by 50 μl of the desired chemokine at different concentrations in wells of columns 4, 8, 12, 16, 20 and 24. 1:1000 (v/v) NUCLIGHT® Rapid Red dye stained and washed activated CD3+ T-cells were quickly added towards the mouth of the channel allowing increased deposition of cells closer to the mouth of the channel in the wells of column 2, 6, 10, 14, 18 and 22 in RPMI media with 0.5% FBS. CD3+ T-cells were activated for 48 hours prior the experiment with 1:500 (v/v) TRANSACT® beads with 20 IU/mL IL2 in RPMI media with 10% FBS. The ORGANOPLATE® was left undisturbed for 3-5 minutes to allow T-cell settling followed by placing them in humidified 37° C. incubator for the duration of the experiment. Chemokines were replaced as needed after 48 and 96 hours along with the 37° C. warmed ultrapure water within the sterile MicroClime Environmental Lid.
Wells from columns 2, 3, 4, 6, 7, 8, 10, 11, 12, 14, 15, 16, 18, 19, 20, 22, 23 and 24 were imaged in the far red and bright field channels at 4× magnification on days 0, 1, 2, 3, 4, 5 and 6 using an INCELL™ 6500 confocal microscope to identify the cells within the migrating channel. Z-stack of six images at different focal planes 50 μm apart spanning the thickness of the microfluidic channel were captured followed by maximum projection to create a singular image of the migratory channel. Images were then transferred to COLUMBUS™ image segmentation software to extract the X-Y location of the migratory CD3+ T-cells within the microfluidic channel. Area cut-offs and positive signal over background were used to accurately identify the fluorescent T-cells over the background.
The X-Y data of the CD3+ T-cells was transferred to SPOTFIRE™ analytics platform for image representation. The X axis location of the migratory T-cells across 4 different replicate wells were pooled and represented as a horizontal violin plot using the GRAPHPAD™ prism. Kruskal-Wallis test for statistical significance was used to understand the significance of a chemokine concentration in driving increased migration distance into the end-to-end solid ECM channel over blank media controls. Replicates were individually compared amongst each other to ensure significance between the sample and replicate and the lowest significance difference was represented in the graph. […]

[1] = test system: HT29-GFP colorectal cancer cells; test: HT29-GFP colorectal cancer cell killing within ECM-filled 2-lane Mimetas ORGANOPLATE (GFP cell debris image analysis); conditions: 10 μM, 5 days, 7-day old single cell colonies, 750 cells
Method: Single cells were seen to be uniformly dispensed across the microfluidic lanes and grew into single cell colonies over time.
2-lane Mimetas ORGANOPLATE® wells harboring 7-day old single cell colonies with either 500 cells or 750 cells were treated with 0 or 10 μM Bortezomib (sold under the brand name Velcade in the United States; CAS 179324-69-7) to observe cell killing within the channel over 5 days.

naive CD3+ T-cells = test: Naive CD3+ T-cell chemotaxis through ECM plug in 2-lane Mimetas ORGANOPLATE; conditions: 2.5 μM CXCR3 agonist
Method: Nuclight rapid red dye stained naive CD3+ T-cells were added closer to the mouth of the channel at the one end (well/frame 2 (102) of extracellular matrix (2 mg/mL collagen+10% (v/v) Matrigel GFR) filled within 2-lane Mimetas ORGANOPLATE®) to evaluate chemotaxis in response to the small molecule agonist applied to other end of the extracellular matrix plug (well/frame 4 (104)). Well/frame 1 (101) was filled with blank media. […] In order to enhance the adhesion of naïve T-cells to the extracellular matrix, 1 μg/mL of ICAM1 (Intercellular Adhesion Molecule 1, also known as Cluster of Differentiation 54 (CD54)) was also spiked into well/frame 2 of the assay system along with the T-cells. Chemotaxis potential was measured via confocal microscopy, identifying the number of naïve T-cells under migration in response to the chemokine gradient generated within the extracellular matrix.

Molecule | lowest concentration with robust chemotaxis response (migration length) compared to blank media control (activated CD3+ T-cells) [nM] | lowest concentration with significantly higher total number of responding activated T-cells over blank media controls (activated CD3+ T-cells) [nM] | also measured
CXCL10: recombinant chemokine, R&D Systems catalog 266-IP | 37.5 | 150 | –
CXCL12: recombinant chemokine, R&D Systems catalog 350-NS | 37.5 | 18.75 | chemotaxis of activated CD3+ T-cells compared to 0 nM (activated CD3+ T-cells; 300 nM, 120 hours, cells in well 2, media in well 1, chemokine in well 4, refreshed after 48 hours): significantly higher chemotaxis
CC(C)C[C@H](NC(=O)[C@H](Cc1ccccc1)NC(=O)c1cnccn1)B(O)O [Bortezomib] | – | – | number of GFP cell debris aggregates (cell killing) versus 0 μM [1]: statistically significant increase
B1 | – | – | effect of addition on number of naive T-cells responding to the chemokine gradient (naive CD3+ T-cells; 1 μg/mL in well 2, 35000 cells): did not influence; impact of inclusion on chemotaxis outcome (naive CD3+ T-cells; 1 μg/mL in well 2, higher naive T-cell numbers (100,000-150,000)): non-significant impact

From patent US20250116657A1, “HIGH-THROUGHPUT ASSAY FOR CELL MIGRATION, CHEMOTAXIS, AND FUNCTION” (GlaxoSmithKline Intellectual Property Development Limited, priority 2022, published 2025)
